According to article PMC7311426, “An amphipathic peptide with antibiotic activity against multidrug-resistant Gram-negative bacteria” (Nature Communications, 2020):
≈ marks a conversion by molar mass, not a printed value. Residues, ends and D or L forms follow the SMILES beside them.

Legend:
Assay in all cases: microbe, parasite or virus in culture
[1] = tested on: E. coli; conditions: E. coli ATCC 25922 FDA control strain; MHB; mode of 6 independent biological replicates
Method: (§1) Antimicrobial activity of arenicin-3 and its analogs was tested against a panel of bacterial and yeast strains by in vitro broth microdilution (BMD) assay with minimum inhibitory concentration (MIC) determination. Strains were purchased from American Type Culture Collection (ATCC) or obtained from clinical collaborators (full strain profiles provided in Supplementary Data 3). All peptides were prepared in Ringer’s acetate solution, and subsequently diluted fresh in water for each independent assay.
(§2) Assays were performed in Mueller Hinton broth (MHB; BD, Cat. No. 211443) for bacteria, and yeast extract-peptone dextrose (YPD; Sigma-Aldrich, Y1500) for yeast. The concentrations of the peptides and comparator antibiotics/antifungals in the assay wells ranged from either 128 or 64 μg mL^−1, to 0.06 or 0.03 μg mL^−1 as a 12-point dose response plated as a 2-fold dilution series across the wells of the plate in duplicate for each independent biological replicate, using a final cell density of 5 × 10^5 CFU mL^−1 and 2.5 × 10^3 CFU mL^−1 for bacteria and yeast respectively. Final assay volumes were 100 μL per well with MICs determined visually following 18-20 h incubation at 37 °C for bacteria, 24 h incubation at 35 °C for Candida albicans, and 24 h incubation at 35 °C with resazurin addition (0.006%; Sigma-Aldrich, Cat # R7017) for a further 3 h for Cryptococcus neoformans, without shaking. Additional bacterial and yeast susceptibility assays were performed in Cation-Adjusted Mueller Hinton Broth (CAMHB; BD, Cat No. 212322) and Roswell Park Memorial Institute (RPMI) 1640 culture medium (Life Technologies Australia, Cat No. 21870092), respectively, as recommended by CLSI guidelines (M07 11th ed[36] and M27 4th ed[37]). […] Agarose MICs were determined in MHB with 1% agarose (Bioline molecular grade; Cat no: BIO-41025; high purity, high gel strength). All experiments were performed a minimum of six replicates (n ≥ 6).

[2] = tested on: K. pneumoniae; conditions: K. pneumoniae ATCC 13883 type strain (polymyxin/colistin heteroresistant); MHB; mode of 6 replicates
Method: as §1, §2

[3] = tested on: A. baumannii; conditions: A. baumannii ATCC 19636 type strain; MHB; mode of 6 replicates
Method: as §1, §2

[4] = tested on: P. aeruginosa; conditions: P. aeruginosa ATCC 27853 control strain; MHB; mode of 6 replicates
Method: as §1, §2

[5] = tested on: S. aureus; conditions: S. aureus ATCC 25923 MSSA; MHB; mode of 6 replicates
Method: as §1, §2

[6] = tested on: A. baumannii clinical isolates
Method: The in vitro activity of AA139 and comparator antimicrobials was determined in two panels of clinical isolates of E. coli, K. pneumoniae, P. aeruginosa, and A. baumannii (Supplementary Table 3), and MIC90 presented. The US panel consisted of 331 clinical isolates from 2010 to 2012. It was tested by BMD in accordance with the CLSI guidelines (M07-A9, 2012)[39]. […] AA139 was diluted in 0.01% acetic acid/0.1% bovine serum albumin. Sterile polypropylene culture cluster round-bottom 96-well plates (Costar # 3879) were used for testing. The worldwide panel consisted of 445 clinical isolates from 2011 to 2013, geographically divided into Asia, Europe, North America, and Rest of World (Middle East, Latin America, Africa, and South Pacific) with each region representing ~25% of the isolates. It was tested by broth microdilution in accordance with the CLSI guidelines (M07-A9, 2012)[39]. […] The test media was CAMHB (Becton Dickinson). AA139 and polymyxin B were tested in media supplemented with 0.002% Tween 80 (Calbiochem). MIC90 values were calculated for all or subsets of the isolates. MIC correlation between AA139 and colistin was analyzed with data from the US panel.

CC(C)[C@@H]1NC(=O)[C@H](Cc2ccc(O)cc2)NC(=O)[C@H](Cc2c[nH]c3ccccc23)NC(=O)[C@@H](NC(=O)[C@@H](N)Cc2ccccc2)CSSC[C@@H](C(=O)N[C@@H](CC(N)=O)C(=O)O)NC(=O)[C@H](CCCNC(=N)N)NC(=O)[C@H](CCCNC(=N)N)NC(=O)[C@H](Cc2ccc(O)cc2)NC(=O)[C@@H]2CSSC[C@H](NC1=O)C(=O)N[C@@H](C)C(=O)N[C@@H](CCCNC(=N)N)C(=O)N[C@@H](CCCNC(=N)N)C(=O)N[C@@H](CC(N)=O)C(=O)NCC(=O)N[C@@H](C)C(=O)N[C@@H](CCCNC(=N)N)C(=O)N[C@@H](C(C)C)C(=O)N2 [AB0015] (HELM PEPTIDE1{F.C.W.Y.V.C.A.R.R.N.G.A.R.V.C.Y.R.R.C.N}$PEPTIDE1,PEPTIDE1,2:R3-19:R3|PEPTIDE1,PEPTIDE1,6:R3-15:R3$$$V2.0)
BMD MIC [1]: 0.5 µg/mL | BMD MIC [2]: 2 µg/mL | BMD MIC [3]: 0.5 µg/mL | BMD MIC [4]: 1 µg/mL | BMD MIC [5]: >64 µg/mL

CC(C)(O/N=C(\C(=O)N[C@@H]1C(=O)N2C(C(=O)[O-])=C(C[n+]3ccccc3)CS[C@H]12)c1csc(N)n1)C(=O)O [Ceftaz]
MIC ([6]; US isolates 2010-2012, isolate CID 1919446, Rep 1): 4 µg/mL (≈ 7.32 µM) | MIC ([6]; US isolates 2010-2012, isolate CID 1919446, Rep 2): 4 µg/mL (≈ 7.32 µM) | MIC ([6]; US isolates 2010-2012, isolate CID 1919519, Rep 1): > 32 µg/mL | MIC ([6]; US isolates 2010-2012, isolate CID 1919519, Rep 2): > 32 µg/mL | MIC ([6]; US isolates 2010-2012, isolate CID 1919714, Rep 1): > 32 µg/mL | MIC ([6]; US isolates 2010-2012, isolate CID 1919714, Rep 2): > 32 µg/mL | MIC ([6]; US isolates 2010-2012, isolate CID 1919942, Rep 1): 8 µg/mL (≈ 14.6 µM) | MIC ([6]; US isolates 2010-2012, isolate CID 1919942, Rep 2): 4 µg/mL (≈ 7.32 µM) | MIC ([6]; US isolates 2010-2012, isolate CID 1930670, Rep 1): > 32 µg/mL | MIC ([6]; US isolates 2010-2012, isolate CID 1930670, Rep 2): > 32 µg/mL | MIC ([6]; US isolates 2010-2012, isolate CID 1930676, Rep 1): 4 µg/mL (≈ 7.32 µM) | MIC ([6]; US isolates 2010-2012, isolate CID 1930676, Rep 2): 4 µg/mL (≈ 7.32 µM) | MIC ([6]; US isolates 2010-2012, isolate CID 2727597, Rep 1): > 32 µg/mL | MIC ([6]; US isolates 2010-2012, isolate CID 2727597, Rep 2): > 32 µg/mL | MIC ([6]; US isolates 2010-2012, isolate CID 2727598, Rep 1): > 32 µg/mL | MIC ([6]; US isolates 2010-2012, isolate CID 2727598, Rep 2): > 32 µg/mL | MIC ([6]; US isolates 2010-2012, isolate CID 2727898, Rep 1): 2 µg/mL (≈ 3.66 µM) | MIC ([6]; US isolates 2010-2012, isolate CID 2727898, Rep 2): 4 µg/mL (≈ 7.32 µM) | MIC ([6]; US isolates 2010-2012, isolate CID 2728115, Rep 1): > 32 µg/mL | MIC ([6]; US isolates 2010-2012, isolate CID 2728115, Rep 2): > 32 µg/mL | MIC ([6]; US isolates 2010-2012, isolate CID 2728119, Rep 1): 32 µg/mL (≈ 58.5 µM) | MIC ([6]; US isolates 2010-2012, isolate CID 2728119, Rep 2): 32 µg/mL (≈ 58.5 µM) | MIC ([6]; US isolates 2010-2012, isolate CID 2728650, Rep 1): > 32 µg/mL | MIC ([6]; US isolates 2010-2012, isolate CID 2728650, Rep 2): > 32 µg/mL | MIC ([6]; US isolates 2010-2012, isolate CID 2728663, Rep 1): > 32 µg/mL | MIC ([6]; US isolates 2010-2012, isolate CID 2728663, Rep 2): > 32 µg/mL | MIC ([6]; US isolates 2010-2012, isolate CID 2732481, Rep 1): 32 µg/mL (≈ 58.5 µM) | MIC ([6]; US isolates 2010-2012, isolate CID 2732481, Rep 2): 32 µg/mL (≈ 58.5 µM) | MIC ([6]; US isolates 2010-2012, isolate CID 2732486, Rep 1): > 32 µg/mL | MIC ([6]; US isolates 2010-2012, isolate CID 2732486, Rep 2): 32 µg/mL (≈ 58.5 µM) | MIC ([6]; US isolates 2010-2012, isolate CID 2762740, Rep 1): > 32 µg/mL | MIC ([6]; US isolates 2010-2012, isolate CID 2762740, Rep 2): > 32 µg/mL | MIC ([6]; US isolates 2010-2012, isolate CID 2801947, Rep 1): 2 µg/mL (≈ 3.66 µM) | MIC ([6]; US isolates 2010-2012, isolate CID 2801947, Rep 2): 2 µg/mL (≈ 3.66 µM) | MIC ([6]; US isolates 2010-2012, isolate CID 2801949, Rep 1): 8 µg/mL (≈ 14.6 µM) | MIC ([6]; US isolates 2010-2012, isolate CID 2801949, Rep 2): 2 µg/mL (≈ 3.66 µM) | MIC ([6]; US isolates 2010-2012, isolate CID 2802027, Rep 1): > 32 µg/mL | MIC ([6]; US isolates 2010-2012, isolate CID 2802027, Rep 2): > 32 µg/mL | MIC ([6]; US isolates 2010-2012, isolate CID 2802028, Rep 1): > 32 µg/mL | MIC ([6]; US isolates 2010-2012, isolate CID 2802028, Rep 2): > 32 µg/mL | MIC ([6]; US isolates 2010-2012, isolate CID 2802029, Rep 1): > 32 µg/mL | MIC ([6]; US isolates 2010-2012, isolate CID 2802029, Rep 2): > 32 µg/mL | MIC ([6]; US isolates 2010-2012, isolate CID 2802031, Rep 1): > 32 µg/mL | MIC ([6]; US isolates 2010-2012, isolate CID 2802031, Rep 2): > 32 µg/mL | MIC ([6]; US isolates 2010-2012, isolate CID 2802109, Rep 2): 32 µg/mL (≈ 58.5 µM) | MIC ([6]; US isolates 2010-2012, isolate CID 2802111, Rep 2): 8 µg/mL (≈ 14.6 µM) | MIC ([6]; US isolates 2010-2012, isolate CID 2802187, Rep 1): 4 µg/mL (≈ 7.32 µM) | MIC ([6]; US isolates 2010-2012, isolate CID 2802187, Rep 2): 4 µg/mL (≈ 7.32 µM)
